From US9630965B2, “Fused amino pyridine as HSP90 inhibitors” (Curis, Inc., priority 2007, dated 2017) come the findings set out here.

pIC50: −log10 of the molar value.

For assay [1], the target named is T1, HSP90 (Homo sapiens (Human), UniProt P07900). Nature of the assay: Hsp90 chaperone assay (refolding of heat-denatured luciferase). Format: biochemical. As to the method: (a) An In Vitro Assay which Determines the Ability of a Test Compound to Inhibit Hsp90 Chaperone Activity.
The Hsp90 chaperone assay was performed to measure the ability of HSP90 protein to refold the heat-denatured luciferase protein. HSP90 was first incubated with different concentrations of test compounds in denaturation buffer (25 mM Tris, pH7.5, 8 mM MgSO4, 0.01% bovine gamma globulin and 10% glycerol) at room temperature for 30 min. Luciferase protein was added to denaturation mix and incubated at 50° C. for 8 min. The final concentration of HSP90 and luciferase in denaturation mixture were 0.375 μM and 0.125 μM respectively. A 5 μl sample of the denatured mix was diluted into 25 μl of renaturation buffer (25 mM Tris, pH7.5, 8 mM MgSO4, 0.01% bovine gamma globulin and 10% glycerol, 0.5 mM ATP, 2 mM DTT, 5 mM KCl, 0.3 μM HSP70 and 0.15 μM HSP40). The renaturation reaction was incubated at room temperature for 150 min, followed by dilution of 10 μl of the renatured sample into 90 μl of luciferin reagent (Luclite, PerkinElmer Life Science). The mixture was incubated at dark for 5 min before reading the luminescence signal on a TopCount plate reader (PerkinElmer Life Science).

For assay [2], the target named is T1, HSP90. Nature of the assay: HSP90 competition binding (fluorescence polarization) assay with FITC labeled GM. To be noted: 24 hours of incubation at 4° C. An excerpt: (b) HSP90 Competition Binding (Fluorescence Polarization) Assay.
A fluorescein isothiocyanate (FITC) labeled GM was purchase from InvivoGen (ant-fgl-1). The interaction between HSP90 and labeled GM forms the basis for the fluorescence polarization assay. A free and fast-tumbling FITC labeled GM emits random light with respect to the plane of polarization plane of excited light, resulting in a lower polarization degree (mP) value. When GM is bound to HSP90, the complex tumble slower and the emitted light is polarized, resulting in a higher mP value. […] The assay buffer contained 20 mM HEPES (pH 7.3), 50 mM KCl, 1 mM DTT, 50 mM MgCl2, 20 mM Na2MoO4, 0.01% NP40 with 0.1 mg/ml bovine gamma-globulin.

Consider `C#CCCCn1c(Sc2cc3c(cc2Cl)OCO3)nc2c(N)nccc21` [Compound 2, 2-(6-chlorobenzo[d][1,3]dioxol-5-ylthio)-1-(pent-4-ynyl)-1H-imidazo[4,5-c]pyridin-4-amine], for which the pIC50 at HSP90 [1] and on HSP90 [2] was 6.00 to 7.00 throughout. As for `C#CCCCn1c(Sc2cc3c(cc2I)OCO3)nc2c(N)nccc21` [Compound 3, 2-(6-iodobenzo[d][1,3]dioxol-5-ylthio)-1-(pent-4-ynyl)-1H-imidazo[4,5-c]pyridin-4-amine], the figures for the pIC50 against HSP90 [1] and on HSP90 [2] were 6.00 to 7.00 and over 7.00, respectively. On to `C#CCCCn1c(Sc2cccc(OC)c2)nc2c(N)nccc21` [Compound 11, 2-(3-methoxyphenylthio)-1-(pent-4-ynyl)-1H-imidazo[4,5-c]pyridin-4-amine], for which the pIC50 on HSP90 [1] is at most 5.00; on HSP90 [2] it was under 5.00.

For `C#CCCCn1c(Sc2cc(OC)ccc2I)nc2c(N)nccc21` [Compound 12, 2-(2-iodo-5-methoxyphenylthio)-1-(pent-4-ynyl)-1H-imidazo[4,5-c]pyridin-4-amine], the negative logarithm of the IC50 (pIC50) was 5.00 to 6.00 against HSP90 [1] and 6.00 to 7.00 on HSP90 [2]. In the same order, the values of `C#CCCCn1c(Sc2cc(OC)ccc2Br)nc2c(N)nccc21` [Compound 13, 2-(2-bromo-5-methoxyphenylthio)-1-(pent-4-ynyl)-1H-imidazo[4,5-c]pyridin-4-amine] are 5.00 to 6.00 and 5.00 to 6.00. Consider `C#CCCCn1c(Sc2cc(OC)ccc2Cl)nc2c(N)nccc21` [Compound 14, 2-(2-chloro-5-methoxyphenylthio)-1-(pent-4-ynyl)-1H-imidazo[4,5-c]pyridin-4-amine], for which the pIC50 against HSP90 [1] and on HSP90 [2] was 5.00 to 6.00 each time. As to `C#CCCCn1c(Sc2cc(OC)ccc2[N+](=O)[O-])nc2c(N)nccc21` [Compound 17, 2-(5-methoxy-2-nitrophenylthio)-1-(pent-4-ynyl)-1H-imidazo[4,5-c]pyridin-4-amine], the negative logarithm of the IC50 (pIC50) on HSP90 [1] was at most 5.00; on HSP90 [2] it was under 5.00.

`C#CCCCn1c(Sc2cc(OC)ccc2C(C)=O)nc2c(N)nccc21` [Compound 19, 1-(2-(4-amino-1-(pent-4-ynyl)-1H-imidazo[4,5-c]pyridin-2-ylthio)-4-methoxyphenyl)ethanone]: the negative logarithm of the IC50 (pIC50) at HSP90 [1] and at HSP90 [2] was 5.00 to 6.00 throughout. `CC(=O)NCCCn1c(Sc2cc3c(cc2I)OCO3)nc2c(N)nccc21` [Compound 74, N-(3-(4-amino-2-(6-iodobenzo[d][1,3]dioxol-5-ylthio)-1H-imidazo[4,5-c]pyridin-1-yl)propyl)acetamide] had a negative-log IC50 (pIC50) on HSP90 [2] of 6.00 to 7.00. As for `CC(=O)NCCCCn1c(Sc2cc3c(cc2I)OCO3)nc2c(N)nccc21` [Compound 76, N-(4-(4-amino-2-(6-iodobenzo[d][1,3]dioxol-5-ylthio)-1H-imidazo[4,5-c]pyridin-1-yl)butyl)acetamide], the pIC50 at HSP90 [2] was 6.00 to 7.00.

For the compound `CN(C)Cc1cc2c(cc1Sc1nc3c(N)nccc3n1CCNCC(C)(C)C)OCO2` [Compound 115, 2-(6-((dimethylamino)methyl)benzo[d][1,3]dioxol-5-ylthio)-1-(2-(neopentylamino)ethyl)-1H-imidazo[4,5-c]pyridin-4-amine], the negative-log IC50 (pIC50) at HSP90 [2] was under 5.00.

As a reminder, the pIC50 is the IC50 on a negative log10 scale, so that one unit is a factor of ten. The low end stands for a large IC50, the high end for a small IC50.
